Laboratory results published in patent publication US8828696B2, “Use of Penicillin G Procaine as a selective antimicrobial agent in the production of alcohol by fermentation” (Lallemand Specialites, Inc, priority 2008, dated 2014).
Read-outs that look alike come from different tables or passages of the source.

Tested on: Saccharomyces cerevisiae yeast
Type: cell-based
Description: A study was conducted to determine the degree of impact of the fermentation antimicrobial Penicillin G Procaine and Penicillin G potassium during alcohol production by fermentation. The antimicrobial impact was inferred by conducting a series of fermentations and measuring if the above said antibiotics interfered with the cell growth and the fermentation function of Saccharomyces cerevisiae yeast used in the fermentation phase. This study provided analysis of what impact, if any, the Penicillin G Procaine or Penicillin G Potassium has on the yeast during lab scale fermentations, specifically BioFerm® XR yeast from North American Bioproducts Corporation (NABC). This study observed the ability of yeast to replicate and ferment a corn mash substrate with and without the presence of Penicillin G Procaine or Penicillin G Potassium.
This study was set up in a series of fermentation vessels. All antibiotic concentrations were tested in triplicate. Cell counts were done on one flask for each treatment at 12, 24, 36 and 48 hours and testing of the fermentation reactions by HPLC was also performed at 12, 24, 36 and 48 hours. The experiment was set as follows:
1. Antibiotic solutions were prepared to provide a sterile 1 and 10 μg/ml solutions.
2. Antibiotic solutions tested were as follows:
3. Fermentations were set up using 31% solids corn mash using saccharifying enzymes and the following procedure:
A. Yeast Conditioning: • 1. Add 2 g yeast to 10 ml sterile water for each 3 flasks to test, (14 g yeast to 70 ml water) into a sterile 250 ml flask and place in water bath set to 100° F. • 2. Incubate at 100° F. for 30 minutes with occasional mixing. • 3. Remove flasks from water bath and divide suspension between the all flasks for the trial.
B. Fermentation Procedure • 1. To prepared mash, add the following. • a. Add 0.58 g urea/liter mash and mix. • b. Add 0.2 ml GA per liter and mix. • 2. Remove sample for background HPLC testing. • 3. Add antibiotic solution to labeled sterile 250 ml flasks. • 4. Add hydrated yeast suspension to mash and mix well. • 5. Add sterile stir bar to each flask and add about 150 ml mash into each 250 ml flask for a total of 21 flasks. • 6. Cover each flask with a gas trap in a sterilized stopper. • 7. Place in a 33° C. water bath with continuous mixing at 280 rpm at 75% power. • 8. Remove sample at 12 hr interval to perform cell count, viability and budding. • 9. Incubate sample up to 48 hours, enough time for complete fermentation • 10. Collect samples at the following times for cell counts and HPLC testing: 12 hours; 24 hours; 36 hours and 48 hours

[1] = 5 ppm, 12 hours, total cell count x % viability
[2] = 5 ppm, 12 hr fermentation sample
[3] = 5 ppm, 24 hours, total cell count x % viability
[4] = 5 ppm, 24 hr fermentation sample
[5] = 5 ppm, 36 hours, total cell count x % viability
[6] = 5 ppm, 36 hr fermentation sample
[7] = 5 ppm, 48 hours, total cell count x % viability
[8] = 5 ppm, 48 hr fermentation sample
[9] = 5 ppm, average of 12, 24, 36 and 48 hour samples
[10] = 15 ppm, 12 hours, total cell count x % viability
[11] = 15 ppm, 12 hr fermentation sample
[12] = 15 ppm, 24 hours, total cell count x % viability
[13] = 15 ppm, 24 hr fermentation sample
[14] = 15 ppm, 36 hours, total cell count x % viability
[15] = 15 ppm, 36 hr fermentation sample
[16] = 15 ppm, 48 hours, total cell count x % viability
[17] = 15 ppm, 48 hr fermentation sample
[18] = 15 ppm, average of 12, 24, 36 and 48 hour samples
[19] = 30 ppm, 12 hours, total cell count x % viability
[20] = 30 ppm, 12 hr fermentation sample
[21] = 30 ppm, 24 hours, total cell count x % viability
[22] = 30 ppm, 24 hr fermentation sample
[23] = 30 ppm, 36 hours, total cell count x % viability
[24] = 30 ppm, 36 hr fermentation sample
[25] = 30 ppm, 48 hours, total cell count x % viability
[26] = 30 ppm, 48 hr fermentation sample
[27] = 30 ppm, average of 12, 24, 36 and 48 hour samples
[28] = average for all three trials (5, 15, 30 ppm), 12-48 hour samples
[29] = average for all three trials (5, 15, 30 ppm), 12 hours
[30] = average for all three trials (5, 15, 30 ppm), 24 hours
[31] = average for all three trials (5, 15, 30 ppm), 36 hours
[32] = average for all three trials (5, 15, 30 ppm), 48 hours
[33] = average for all three trials (5, 15, 30 ppm), Average 12-48 hours

## CC1(C)S[C@@H]2[C@H](NC(=O)Cc3ccccc3)C(=O)N2[C@H]1C(=O)[O-].[K+] [Penicillin G Potassium]
[1]
  viable yeast cell count: 510
[2]
  % B (% budding): 13.8%
  % V (% viability): 88%
  CC (cell count): 580
[3]
  viable yeast cell count: 500
[4]
  % B (% budding): 8.4%
  % V (% viability): 90%
  CC (cell count): 556
[5]
  viable yeast cell count: 421
[6]
  % B (% budding): 8.1%
  % V (% viability): 81%
  CC (cell count): 520
[7]
  viable yeast cell count: 381
[8]
  % B (% budding): 8.9%
  % V (% viability): 75%
  CC (cell count): 508
5 ppm, Average 12-48 hours
  viable yeast cell count: 453
[9]
  A % B (average % budding): 9.8%
  A % V (average % viability): 83.5%
  ACC (average cell count): 541
[10]
  viable yeast cell count: 469
[11]
  % B (% budding): 13.3%
  % V (% viability): 85%
  CC (cell count): 552
[12]
  viable yeast cell count: 465
[13]
  % B (% budding): 7.5%
  % V (% viability): 86%
  CC (cell count): 541
[14]
  viable yeast cell count: 435
[15]
  % B (% budding): 6.2%
  % V (% viability): 82%
  CC (cell count): 530
[16]
  viable yeast cell count: 372
[17]
  % B (% budding): 7.3%
  % V (% viability): 72%
  CC (cell count): 516
15 ppm, Average 12-48 hours
  viable yeast cell count: 435
[18]
  A % B (average % budding): 8.6%
  A % V (average % viability): 81.3%
  ACC (average cell count): 535
[19]
  viable yeast cell count: 535
[20]
  % B (% budding): 12.3%
  % V (% viability): 86%
  CC (cell count): 622
[21]
  viable yeast cell count: 462
[22]
  % B (% budding): 8.7%
  % V (% viability): 88%
  CC (cell count): 525
[23]
  viable yeast cell count: 401
[24]
  % B (% budding): 8.7%
  % V (% viability): 80%
  CC (cell count): 501
[25]
  viable yeast cell count: 393
[26]
  % B (% budding): 6.4%
  % V (% viability): 77%
  CC (cell count): 511
30 ppm, Average 12-48 hours
  viable yeast cell count: 448
[27]
  A % B (average % budding): 9.0%
  A % V (average % viability): 82.8%
  ACC (average cell count): 540
[28]
  A % B (average % budding): 9.1%
  A % V (average % viability): 82.5%
  ACC (average cell count): 539
[29]
  viable yeast cell count: 505
[30]
  viable yeast cell count: 476
[31]
  viable yeast cell count: 419
[32]
  viable yeast cell count: 382
[33]
  viable yeast cell count: 445

## CC1(C)S[C@@H]2[C@H](NC(=O)Cc3ccccc3)C(=O)N2[C@H]1C(=O)O.CCN(CC)CCOC(=O)c1ccc(N)cc1 [Penicillin G Procaine]
[1]
  viable yeast cell count: 535
[2]
  % B (% budding): 15.0%
  % V (% viability): 89%
  CC (cell count): 601
[3]
  viable yeast cell count: 489
[4]
  % B (% budding): 7.9%
  % V (% viability): 88%
  CC (cell count): 556
[5]
  viable yeast cell count: 432
[6]
  % B (% budding): 9.2%
  % V (% viability): 83%
  CC (cell count): 521
[7]
  viable yeast cell count: 404
[8]
  % B (% budding): 8.0%
  % V (% viability): 75%
  CC (cell count): 538
5 ppm, Average 12-48 hours
  viable yeast cell count: 465
[9]
  A % B (average % budding): 10.0%
  A % V (average % viability): 83.8%
  ACC (average cell count): 554
[10]
  viable yeast cell count: 494
[11]
  % B (% budding): 17.7%
  % V (% viability): 86%
  CC (cell count): 574
[12]
  viable yeast cell count: 528
[13]
  % B (% budding): 7.8%
  % V (% viability): 91%
  CC (cell count): 580
[14]
  viable yeast cell count: 410
[15]
  % B (% budding): 7.3%
  % V (% viability): 78%
  CC (cell count): 526
[16]
  viable yeast cell count: 385
[17]
  % B (% budding): 9.0%
  % V (% viability): 74%
  CC (cell count): 520
15 ppm, Average 12-48 hours
  viable yeast cell count: 454
[18]
  A % B (average % budding): 10.4%
  A % V (average % viability): 82.3%
  ACC (average cell count): 550
[19]
  viable yeast cell count: 528
[20]
  % B (% budding): 14.8%
  % V (% viability): 85%
  CC (cell count): 621
[21]
  viable yeast cell count: 496
[22]
  % B (% budding): 10.3%
  % V (% viability): 89%
  CC (cell count): 557
[23]
  viable yeast cell count: 400
[24]
  % B (% budding): 7.0%
  % V (% viability): 78%
  CC (cell count): 513
[25]
  viable yeast cell count: 385
[26]
  % B (% budding): 6.0%
  % V (% viability): 78%
  CC (cell count): 493
30 ppm, Average 12-48 hours
  viable yeast cell count: 452
[27]
  A % B (average % budding): 9.5%
  A % V (average % viability): 82.5%
  ACC (average cell count): 546
[28]
  A % B (average % budding): 10.0%
  A % V (average % viability): 82.8%
  ACC (average cell count): 550
[29]
  viable yeast cell count: 519
[30]
  viable yeast cell count: 504
[31]
  viable yeast cell count: 414
[32]
  viable yeast cell count: 391
[33]
  viable yeast cell count: 457
